These results are taken from patent US20040180888A1 (priority 2001, published 2004).

Where two headings read alike, the source gives them in different places.

What is called CC50 is the concentration that lowers cell viability or growth by half. A high value points to better tolerance by the cells. In general, melting point refers to the temperature of the solid-liquid transition. The EC50 is the concentration that produces a half-maximal response.

Data set [1] has as its system mock-infected MT-4 cells. Kind of data set: Viability of mock-infected MT-4 cells, MTT method. It is filed as cell-based. (In general: Tetrazolium dyes change colour on reduction, which living cells bring about.)
For data set [2], the system named is HIV-1 Y181C. Kind of data set: microbe, parasite or virus in culture. It counts as cell-based. The conditions noted are these: for Y181C (Nx) resistance shift: EC50 Y181C versus WTIIIB.
Data set [3] concerns HIV-1 WTIIIB. The data set is described as follows: Protection of MT-4 cells from HIV-1-induced cytopathogenicity, MTT method, WTIIIB. It is filed as cell-based. From the text: Example 26 illustrates the influence of substituents at positions 4, 5, 6, and 7 of the indole ring, in which position 2 of the indole ring is maintained constant, and the substitution at the 3,5-position of the phenyl ring is either hydrogen or held constant with a 3,5-dimethyl substitution. Table 3 presents the influence of these variations on the ability of the compounds to protect cells from HIV-1 induced pathogenecity.
(In general: Cytopathic effects are the visible damage that an infection or toxin causes in cultured cells.)

Data set [4] has as its system HIV-1 K103N-Y181C. The data set is described as follows: microbe, parasite or virus in culture. It counts as cell-based. The conditions noted are these: for K103N-Y181C (Nx) resistance shift: EC50 K103N-Y181C versus WTIIIB.
In data set [5] the test system is HIV-1 K103R. The data set is described as follows: microbe, parasite or virus in culture. It is filed as cell-based. As to conditions: for K103R (Nx) resistance shift: EC90 K103R versus WTIIIB.
The test system of data set [6] is HIV-1 WTIIIB. Kind of data set: p24 reduction in virus-infected C8166 cells, WTIIIB. It counts as cell-based.
In data set [7] the test system is HIV-1. As to conditions: for (Nx) protein binding shift α-GP 1 mg/mL: EC90 with 1 mg/mL glycoprotein versus RPMI; for (Nx) protein binding shift HSA 45 mg/mL: EC90 with 45 mg/mL HSA versus RPMI.
A short description of data set [8]: Viability of mock-infected MT-4 cells, MTT method. It counts as cell-based. The conditions noted are these: human; mock-infected MT-4 cells, MTT.
Where [9] appears, read: 50% protection of MT-4 cells, MTT, read-out: Y181C EC50.
[10] abbreviates: 50% protection of MT-4 cells, MTT, read-out: K103N-Y181C EC50.
Where [11] appears, read: reduce p24 by 90% in virus-infected C8166 cells, read-out: K103R EC90.
[12] abbreviates: reduce p24 by 90% in virus-infected C8166 cells, read-out: WTIIIB EC90.
The mark [13] stands for this setting: read-out: EC90 HSA 45 mg/mL, HIV-1-infected MT-4 cells, RPMI 10% FCS plus 45 mg/mL human serum albumin.
Where [14] appears, read: read-out: EC90 RPMI, reduce p24 by 90% in HIV-1-infected MT-4 cells, RPMI 10% FCS.
[15] abbreviates: read-out: EC90 α-GP 1 mg/mL, HIV-1-infected MT-4 cells, RPMI 10% FCS plus 1 mg/mL glycoprotein.
The mark [16] stands for this setting: Human immunodeficiency virus 1, MT4, read-out: Y181C EC50.
Where [17] appears, read: Human immunodeficiency virus 1, MT4, 50% protection of MT-4 cells.
Setting [18] is: Human immunodeficiency virus 1, MT4, read-out: K103N-Y181C EC50.

Regarding `CNNC(=O)c1[nH]c2ccc(Cl)cc2c1S(=O)(=O)c1cc(C)cc(C)c1` [Compd 10], the CC50 in data set [1] was above 200000 nM.
`Cc1cc(C)cc(S(=O)(=O)c2c(CC(N)=O)[nH]c3cc(Cl)c(F)cc23)c1` [5i, 6-Chloro-3-(3,5-dimethylphenylsulfonyl)-5-fluoroindole-2-carboxyamide] showed a melting point of 262 to 264 °C.
Consider `Cc1cc(C)cc(S(=O)(=O)c2c(CC(N)=O)[nH]c3ccc(F)c(F)c23)c1` [compound 11, 3-(3,5-Dimethylphenylsulfonyl)-4,5-difluoroindole-2-carboxyamide], for which the melting point lay in the range of 298 to 300 °C.
Consider `NC(=O)c1[nH]c2cc(Cl)c(Cl)cc2c1S(=O)(=O)c1ccccc1` [compound 8], for which the half-maximal cytotoxic concentration (CC50) in data set [1] is 123000 nM. The 50% effective concentration (EC50) in data set [2] (setting [9]) is 2600 nM; in data set [3] (50% protection of MT-4 cells), 140 nM; in [4] (setting [10]), above 100000 nM. Further, the “Y181C (Nx) resistance shift” value in data set [2] worked out at 18 x. Besides, the “K103N-Y181C (Nx) resistance shift” value in data set [4] is above 714 x. The “K103R (Nx) resistance shift” value in [5] came out at 94 x. In addition, the EC90 in data set [5] (setting [11]) was determined as 16000 nM; in [6] (setting [12]), 170 nM.
`NC(=O)c1[nH]c2ccc(Cl)cc2c1S(=O)(=O)c1ccccc1` [compound 1]: the “(Nx) protein binding shift α-GP 1 mg/mL” value in data set [7] was 2 x. The “(Nx) protein binding shift HSA 45 mg/mL” value in data set [7] turned out to be 10 x. For the same compound, the EC90 in [7] (setting [13]) worked out at 10 nM; in data set [7] (setting [14]) it was 1 nM; in data set [7] (setting [15]), 2 nM.
For the compound `NC(=O)Cc1[nH]c2ccc(-n3cccc3)cc2c1S(=O)(=O)c1ccccc1` [25a, 5-(1H-Pyrrol-1-yl)-3-(phenylsulfonyl)indole-2-carboxyamide], the melting point amounted to 250 °C.
On to `Cc1cc(C)cc(S(=O)(=O)c2c(C(N)=O)[nH]c3cc(F)c(F)cc23)c1` [compound 12, 3-(3,5-Dimethylpbenylsulfonyl)-5,6-difluoroindole-2-carboxyamide], for which the EC50 in [2] (setting [9]) is 70 nM; in [3] (50% protection of MT-4 cells) it was at most 3 nM; in [4] (setting [10]), 2600 nM. In addition, in [2], the “Y181C (Nx) resistance shift” value was “(≧23.3) x”. The “K103N-Y181C (Nx) resistance shift” value in [4] is given as at least 866 x.
Take `Cc1cc(C)cc(S(=O)(=O)c2c(C(=O)NCC(N)=O)[nH]c3ccc(Cl)cc23)c1` [compound 4, 2-[N-[5-Chloro-3-(3,5-dimethylphenylsulfonyl)indol-2-carboxy-amido]]-acetamide]: the midpoint of cytotoxicity in [1], the CC50, lay at 30000 nM. Besides, the 50% effective concentration (EC50) in data set [2] (setting [9]) stood at 30 nM; in [3] (50% protection of MT-4 cells), 6 nM; in data set [4] (setting [10]) it was 800 nM. Besides, the “Y181C (Nx) resistance shift” value in [2] is 5 x. The “K103N-Y181C (Nx) resistance shift” value in data set [4] came to 133 x. For the same compound, the “K103R (Nx) resistance shift” value in [5] is given as 10 x. In addition, the EC90 in data set [5] (setting [11]) worked out at 100 nM; in data set [7] (setting [13]), 4800 nM; in [7] (setting [14]), 60 nM; in data set [7] (setting [15]) it was 200 nM; in [6] (setting [12]), 10 nM. In data set [7], the “(Nx) protein binding shift α-GP 1 mg/mL” value was found to be 3 x. For the same compound, the “(Nx) protein binding shift HSA 45 mg/mL” value in [7] stood at 80 x.
Compound `Cc1cc(C)cc(S(=O)(=O)c2c(CC(N)=O)[nH]c3ccc([N+](=O)[O-])cc23)c1` [5k, 5-Nitro-3-(3,5-dimethylphenylsulfonyl)indole-2-carboxyamide] gave a melting point of 270 to 272 °C.
As to `CC(=O)c1ccc2[nH]c(CC(N)=O)c(Sc3cc(C)cc(C)c3)c2c1` [5l, 5-Acetyl-3-(3,5-dimethylphenylthio)indole-2-carboxyamide], the melting point is above 300 °C.
With `Cc1cc(C)cc(S(=O)(=O)c2c(C(=O)NNCCO)[nH]c3ccc(Cl)cc23)c1` [compound 3, 5-Chloro-3-(3,5-dimethylphenylsulfonyl)indole-2-[N′-(2-hydroxy-ethyl)]-carboxyhydrazide], the “(Nx) protein binding shift α-GP 1 mg/mL” value in [7] was 7 x. The “(Nx) protein binding shift HSA 45 mg/mL” value in [7] worked out at 67 x. Also, the EC90 in [7] (setting [13]) was found to be 270 nM; in data set [7] (setting [14]), 4 nM; in [7] (setting [15]) it was 30 nM.
Regarding `Cc1cc(C)cc(S(=O)(=O)c2c(C(=O)NNC(C)C)[nH]c3ccc(Cl)cc23)c1` [Compd 11], half-maximal cytotoxicity in data set [1] (CC50) was put at 17000 nM.
Regarding `O=C1Nc2ccc(Cl)cc2[C@@](C#CC2CC2)(C(F)(F)F)O1` [EFV, efavirenz, reference compound], the CC50 in data set [8] came out at 35000 nM. The EC50 stood at 25 nM in [2] (setting [16]), 4 nM in data set [3] (setting [17]) and 150 nM in [4] (setting [18]). For the same compound, the EC90 in [5] (Human immunodeficiency virus 1, C8166, read-out: K103R EC90) came out at 1800 nM; in [6] (Human immunodeficiency virus 1, C8166, read-out: WTIIIB EC90) it was 8 nM.
Compound `Cc1cc(C)cc(S(=O)(=O)c2c(C(=O)N3CCN(C)CC3)[nH]c3ccc(Cl)cc23)c1` [Compd 13] yielded a CC50 in data set [1] above 200000 nM.
Regarding `Cc1ccnc2c1NC(=O)c1cccnc1N2C1CC1` [NVP, nevirapine, reference compound], in data set [8], the CC50 was found to be 200000 nM. Further, the EC50 in [2] (setting [16]) is above 30000 nM; in data set [3] (setting [17]) it was 370 nM; in [4] (setting [18]) it was above 30000 nM.
For the compound `Cc1cc(C)cc(S(=O)(=O)c2c(CC(N)=O)[nH]c3ccc(F)c(Cl)c23)c1` [5h, 4-Chloro-3-(3,5-dimethylphenylsulfonyl)-5-fluoroindole-2-carboxyamide], the melting point was in the range of 279 to 280 °C.
For the compound “5-Chloro-3-(3,5-dimethylphenylsulfonyl)-indole-2-carboxyamide [compound 2]”, in data set [7], the “(Nx) protein binding shift α-GP 1 mg/mL” value was 2 x. The “(Nx) protein binding shift HSA 45 mg/mL” value in data set [7] worked out at 40 x. Moreover, the results for the EC90 in [7] (setting [13]), in [7] (setting [14]) and in data set [7] (setting [15]) were 200 nM, 5 nM and 10 nM, respectively.
In turn, `Cc1cc(C)cc(S(=O)(=O)c2c(CC(N)=O)[nH]c3ccc(Cl)c(F)c23)c1` [5g, 5-Chloro-3-(3,5-dimethylphenylsulfonyl)-4-fluoroindole-2-carboxyamide] showed a melting point of 268 to 270 °C.
The compound `Cc1cc(C)cc(S(=O)(=O)c2c(CC(N)=O)[nH]c3c(Cl)cc(Cl)cc23)c1` [compound 10, 5,7-Dichloro-3-(3,5-dimethylphenylsulfonyl)indole-2-carboxyamide] returned a melting point above 300 °C.
`Cc1cc(C)cc(S(=O)(=O)c2c(CC(N)=O)[nH]c3c(F)cc(F)cc23)c1` [compound 13, 3-(3,5-Dimethylphenylsulfonyl)-5,7-difluoroindole-2-carboxyamide] had a melting point above 300 °C.
